Experimental data taken from US8466107B2, “Fibrin-binding peptides and conjugates thereof” (Bracco Imaging SpA, priority 2006, dated 2013).
Bridge positions count the residues as written; N and C are the ends. Square brackets hold non-standard residues; d marks the D form. Peptide text beside a SMILES is read from it. * marks the point of attachment. 5FAM = O=C1OC2(c3ccc(O)cc3Oc3cc(O)ccc32)c2ccc(C(=O)*)cc21; Cha = N[C@@H](CC1CCCCC1)C(=O)O

Biological target: DDE (fibrin-derived polypeptide) (Homo sapiens, UniProt P02671+P02675+P02679)
Sequence (P02671 124-216): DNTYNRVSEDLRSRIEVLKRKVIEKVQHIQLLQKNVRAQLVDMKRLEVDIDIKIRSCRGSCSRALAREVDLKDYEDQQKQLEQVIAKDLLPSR
Sequence (P02675 164-491): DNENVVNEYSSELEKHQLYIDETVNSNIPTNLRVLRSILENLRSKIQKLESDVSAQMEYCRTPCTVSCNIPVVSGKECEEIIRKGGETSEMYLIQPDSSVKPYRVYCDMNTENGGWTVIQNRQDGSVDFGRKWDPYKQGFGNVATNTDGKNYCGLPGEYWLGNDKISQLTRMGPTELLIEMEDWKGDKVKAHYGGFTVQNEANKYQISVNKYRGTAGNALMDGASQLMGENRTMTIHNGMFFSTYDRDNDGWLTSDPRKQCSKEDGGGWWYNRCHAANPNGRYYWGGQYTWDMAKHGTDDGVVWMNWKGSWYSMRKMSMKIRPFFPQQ
Sequence (P02679 114-432): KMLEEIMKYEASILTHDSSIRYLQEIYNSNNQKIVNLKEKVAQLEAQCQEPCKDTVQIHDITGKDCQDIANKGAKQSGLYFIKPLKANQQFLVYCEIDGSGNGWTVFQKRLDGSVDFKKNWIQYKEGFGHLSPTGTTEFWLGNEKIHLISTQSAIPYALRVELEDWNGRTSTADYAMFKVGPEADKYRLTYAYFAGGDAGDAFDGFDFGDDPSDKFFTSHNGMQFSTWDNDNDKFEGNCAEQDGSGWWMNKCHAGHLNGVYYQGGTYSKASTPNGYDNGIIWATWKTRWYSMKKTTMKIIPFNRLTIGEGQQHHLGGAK
Sequence (P02671 36-97): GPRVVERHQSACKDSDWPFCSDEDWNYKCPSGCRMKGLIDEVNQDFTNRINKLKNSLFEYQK
Sequence (P02675 45-152): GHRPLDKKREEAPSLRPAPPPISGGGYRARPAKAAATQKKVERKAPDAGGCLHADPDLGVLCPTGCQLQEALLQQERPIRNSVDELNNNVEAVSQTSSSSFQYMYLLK
Sequence (P02679 27-88): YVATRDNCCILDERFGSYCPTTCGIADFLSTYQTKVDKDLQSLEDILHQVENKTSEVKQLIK
Assay: Direct binding fluorescence polarization (FP) assay using 5-carboxyfluorescein labeled peptides
Conditions: 20 nM CF5-labeled peptide, serial dilutions of DDE, anisotropy read at 485 nm; read-out: KD (μM) Direct Binding (n = 2)

With `CC(=O)N[C@@H](CCCNC(=N)N)C(=O)N[C@@H](Cc1c[nH]c2ccccc12)C(=O)N[C@@H](CCC(N)=O)C(=O)N1CCC[C@H]1C(=O)N[C@H]1CSSC[C@@H](C(=O)N[C@@H](Cc2c[nH]c3ccccc23)C(=O)N[C@@H](CC(=O)O)C(=O)N2CCC[C@H]2C(=O)NCC(=O)NCC(=O)NCC(=O)N[C@@H](CCCCNC(=O)c2ccc3c(c2)C(=O)OC32c3ccc(O)cc3Oc3cc(O)ccc32)C(N)=O)NC(=O)[C@H](CC2CCCCC2)NC(=O)[C@H]([C@@H](C)O)NC(=O)[C@H](Cc2c[nH]c3ccccc23)NC(=O)[C@H](CO)NC(=O)[C@H](CCC(=O)O)NC(=O)[C@H](C)NC(=O)[C@@H]2CCCN2C1=O` [Seq050-CF5, Ac-RWQPC*PAESWT-Cha-C*WDPGGGK(CF5)-NH2] (Ac-RWQPCPAESWT[Cha]CWDPGGGK(5FAM)-NH2; disulfide 5-13) as the compound, how does the Kd read?
Its Kd is 0.08 µM.

`C[C@@H]1NC(=O)[C@@H]2CCCN2C(=O)[C@@H](NC(=O)[C@@H]2CCCN2C(=O)[C@H](CCC(N)=O)NC(=O)[C@H](Cc2c[nH]c3ccccc23)NC(=O)CN)CSSC[C@@H](C(=O)N[C@@H](Cc2c[nH]c3ccccc23)C(=O)N[C@@H](CC(=O)O)C(=O)N2CCC[C@H]2C(=O)NCC(=O)NCC(=O)NCC(=O)N[C@@H](CCCCNC(=O)c2ccc3c(c2)C(=O)OC32c3ccc(O)cc3Oc3cc(O)ccc32)C(N)=O)NC(=O)[C@H](CC2CCCCC2)NC(=O)[C@H]([C@@H](C)O)NC(=O)[C@H](Cc2c[nH]c3ccccc23)NC(=O)[C@H](CO)NC(=O)[C@H](CCC(=O)O)NC1=O` [Seq051-CF5, GWQPC*PAESWT-Cha-C*WDPGGGK(CF5)-NH2] (H-GWQPCPAESWT[Cha]CWDPGGGK(5FAM)-NH2; disulfide 5-13; N-terminus assumed) was tested. Which Kd did it give?
The Kd was 0.06 µM.

`CC(=O)N[C@@H](CCCNC(=N)N)C(=O)NCC(=O)N[C@@H](Cc1c[nH]c2ccccc12)C(=O)N[C@@H](CCC(N)=O)C(=O)N1CCC[C@H]1C(=O)N[C@H]1CSSC[C@@H](C(=O)N[C@@H](Cc2c[nH]c3ccccc23)C(=O)N[C@@H](CC(=O)O)C(=O)N2CCC[C@H]2C(=O)NCC(=O)NCC(=O)NCC(=O)N[C@@H](CCCCNC(=O)c2ccc3c(c2)C(=O)OC32c3ccc(O)cc3Oc3cc(O)ccc32)C(N)=O)NC(=O)[C@H](Cc2ccccc2)NC(=O)[C@H]([C@@H](C)O)NC(=O)[C@H](Cc2c[nH]c3ccccc23)NC(=O)[C@H](CO)NC(=O)[C@H](CCC(=O)O)NC(=O)[C@H](Cc2c[nH]c3ccccc23)NC(=O)[C@@H]2CCCN2C1=O` [Seq052-CF5] (Ac-RGWQPCPWESWTFCWDPGGGK(5FAM)-NH2; disulfide 6-14) was tested. Which Kd did it give?
Its Kd is 0.53 µM.

How did the Kd turn out when `CC(=O)N[C@@H](CCCNC(=N)N)C(=O)NCC(=O)N[C@@H](Cc1c[nH]c2ccccc12)C(=O)N[C@@H](CCC(N)=O)C(=O)N1CCC[C@H]1C(=O)N[C@H]1CSSC[C@@H](C(=O)N[C@@H](Cc2c[nH]c3ccccc23)C(=O)N[C@@H](CC(=O)O)C(=O)N2CCC[C@H]2C(=O)NCC(=O)NCC(=O)NCC(=O)N[C@@H](CCCCNC(=O)c2ccc3c(c2)C(=O)OC32c3ccc(O)cc3Oc3cc(O)ccc32)C(N)=O)NC(=O)[C@H](CC2CCCCC2)NC(=O)[C@H]([C@@H](C)O)NC(=O)[C@H](Cc2c[nH]c3ccccc23)NC(=O)[C@H](CO)NC(=O)[C@H](CCC(=O)O)NC(=O)[C@H](C)NC(=O)[C@@H]2CCCN2C1=O` [Seq053-CF5, Ac-RGWQPC*PAESWT-Cha-C*WDPGGGK(CF5)-NH2] (Ac-RGWQPCPAESWT[Cha]CWDPGGGK(5FAM)-NH2; disulfide 6-14) was run?
The Kd was 0.1 µM.

With `C[C@@H]1NC(=O)[C@@H]2CCCN2C(=O)[C@@H](NC(=O)[C@@H]2CCCN2C(=O)[C@H](CCC(N)=O)NC(=O)[C@H](Cc2c[nH]c3ccccc23)NC(=O)CNC(=O)[C@@H](N)CCCNC(=N)N)CSSC[C@@H](C(=O)N[C@@H](Cc2c[nH]c3ccccc23)C(=O)N[C@@H](CC(=O)O)C(=O)N2CCC[C@H]2C(=O)NCC(=O)NCC(=O)NCC(=O)N[C@@H](CCCCNC(=O)c2ccc3c(c2)C(=O)OC32c3ccc(O)cc3Oc3cc(O)ccc32)C(N)=O)NC(=O)[C@H](CC2CCCCC2)NC(=O)[C@H]([C@@H](C)O)NC(=O)[C@H](Cc2c[nH]c3ccccc23)NC(=O)[C@H](CO)NC(=O)[C@H](CCC(=O)O)NC1=O` [Seq054-CF5, RGWQPC*PAESWT-Cha-C*WDPGGGK(CF5)-NH2] (H-RGWQPCPAESWT[Cha]CWDPGGGK(5FAM)-NH2; disulfide 6-14) as the compound, how does the Kd read?
Its Kd is 0.05 µM.

For `CC(=O)NCC(=O)N[C@@H](Cc1c[nH]c2ccccc12)C(=O)N[C@@H](CCC(N)=O)C(=O)N1CCC[C@H]1C(=O)N[C@H]1CSSC[C@@H](C(=O)N[C@@H](Cc2c[nH]c3ccccc23)C(=O)N[C@@H](CC(=O)O)C(=O)N2CCC[C@H]2C(=O)NCC(=O)NCC(=O)NCC(=O)N[C@@H](CCCCNC(=O)c2ccc3c(c2)C(=O)OC32c3ccc(O)cc3Oc3cc(O)ccc32)C(N)=O)NC(=O)[C@H](CC2CCCCC2)NC(=O)[C@H]([C@@H](C)O)NC(=O)[C@H](Cc2c[nH]c3ccccc23)NC(=O)[C@H](CO)NC(=O)[C@H](CCC(=O)O)NC(=O)[C@H](C)NC(=O)[C@@H]2CCCN2C1=O` [Seq055-CF5, Ac-GWQPC*PAESWT-Cha-C*WDPGGGK(CF5)-NH2] (Ac-GWQPCPAESWT[Cha]CWDPGGGK(5FAM)-NH2; disulfide 5-13), which Kd is on record?
Its Kd is 0.08 µM.

With `C[C@@H]1NC(=O)[C@@H]2CCCN2C(=O)[C@@H](NC(=O)[C@@H]2CCCN2C(=O)[C@H](CCC(N)=O)NC(=O)[C@H](Cc2c[nH]c3ccccc23)NC(=O)[C@@H](N)CCCNC(=N)N)CSSC[C@@H](C(=O)N[C@@H](Cc2c[nH]c3ccccc23)C(=O)N[C@@H](CC(=O)O)C(=O)N2CCC[C@H]2C(=O)NCC(=O)NCC(=O)NCC(=O)N[C@@H](CCCCNC(=O)c2ccc3c(c2)C(=O)OC32c3ccc(O)cc3Oc3cc(O)ccc32)C(N)=O)NC(=O)[C@H](Cc2ccccc2)NC(=O)[C@H]([C@@H](C)O)NC(=O)[C@H](Cc2c[nH]c3ccccc23)NC(=O)[C@H](CO)NC(=O)[C@H](CCC(=O)O)NC1=O` [Seq056-CF5] (H-RWQPCPAESWTFCWDPGGGK(5FAM)-NH2; disulfide 5-13) as the compound, how does the Kd read?
The Kd was 0.06 µM.

For `C[C@@H]1NC(=O)[C@@H]2CCCN2C(=O)[C@@H](NC(=O)[C@@H]2CCCN2C(=O)[C@H](CCC(N)=O)NC(=O)[C@H](Cc2c[nH]c3ccccc23)NC(=O)[C@@H](N)CCCNC(=N)N)CSSC[C@@H](C(=O)N[C@@H](Cc2c[nH]c3ccccc23)C(=O)N[C@@H](CC(=O)O)C(=O)N2CCC[C@H]2C(=O)NCC(=O)NCC(=O)NCC(=O)N[C@@H](CCCCNC(=O)c2ccc3c(c2)C(=O)OC32c3ccc(O)cc3Oc3cc(O)ccc32)C(N)=O)NC(=O)[C@H](CC2CCCCC2)NC(=O)[C@H]([C@@H](C)O)NC(=O)[C@H](Cc2c[nH]c3ccccc23)NC(=O)[C@H](CO)NC(=O)[C@H](CCC(=O)O)NC1=O` [Seq057-CF5, RWQPC*PAESWT-Cha-C*WDPGGGK(CF5)-NH2] (H-RWQPCPAESWT[Cha]CWDPGGGK(5FAM)-NH2; disulfide 5-13), which Kd is on record?
The Kd was 0.03 µM.
